The test system of assay [1] is S. pyogenes (Erythromycin and Tetracycline resistant strains). As to the kind of experiment: MIC/MBC assay (2-fold microdilution, CAMHB with […] laked horse blood). Type of assay: cell-based. The conditions noted are these: Streptococcus pyogenes. The method, then: (§1) Tables 26 and 27 show an assay whose setup is same as what was used for screening S. aureus and P. aeruginosa (i.e. 2-fold microdilution). The 20 strains of S. pyogenes assayed were selected from the two rounds of antibiotic screening to identify Erythromycin and Tetracycline resistant strains. […] For this feasibility study, AB-101 Lot 1 and Lot 2 was used. P. aeruginosa ATCC 27853 was tested as a positive control for AB-101 activity.
For orientation: In broth dilution the organism is exposed to a series of concentrations in liquid medium.

The next assay deals with Pseudomonas aeruginosa. As to the kind of experiment: In vitro MIC/MBC assay (2-fold microdilution), multi-drug resistant strain panel. Type of assay: cell-based. An excerpt: Of the 20, 5 are known to be Verona integron-encoded metallo-beta-lactamase (VIM)—producing Pseudomonas aeruginosa which are drug resistant strains of Pseudomonas aeruginosa, another 5 are know to be Klebsiella pneumoniae carbapenemase (KPC) producing Pseudomonas aeruginosa strains which are drug resistant strains of Pseudomonas aeruginosa, and 4 are known to be IMP-Type Metallo-β-Lactamase (IMP))—producing Pseudomonas aeruginosa which are drug resistant strains of Pseudomonas aeruginosa. The 6 remaining strains are known to be antibiotic resistant and are listed simply as MDR strains. […]

Assay [2] concerns MSSA strains (Mupirocin-resistant and Mupirocin-susceptible; QC ATCC 29213). As to the kind of experiment: In vitro MIC/MBC assay (2-fold microdilution), S. aureus strain panel. The class given is cell-based, Staphylococcus aureus. The protocol: AB-101 was tested against an extensive variety of bacterial strains, including Mupirocin-resistant MRSA, Mupirocin-resistant MSSA, Mupirocin-susceptible MSSA, Mupirocin-susceptible MRSA, and other skin-related pathogens.
Measures included the minimum inhibitory concentration (MIC) which is the lowest concentration of AB-101 that prevents visible growth of the bacterium or pathogen, and minimum bactericidal concentration (MBC) which is the lowest concentration of an antibacterial agent required to kill a bacterium.
AB-101 Lots 01, 02 and a purified extract of taspine for MIC are compared. […] Taspine may have additional synergistic benefits to be included in the whole extract in the final product for the effective treatment of a bacterial colonization or primary or secondary bacterial infection of an underlying skin disorder.
AB-101 Lots 01, 02 and a purified extract of taspine for MBC are compared. […] Taspine may have additional synergistic benefits to be included in the whole extract in the final product for the effective treatment of bacterial colonization or primary or secondary bacterial infection of an underlying skin disorder.
as §1

Where [3] appears, read: S. pyogenes strain 1744264, read-out: MIC.
Setting [4] is: S. pyogenes strain 1744265, read-out: MIC.
The mark [5] stands for this setting: S. pyogenes strain 1744271, read-out: MIC.
Setting [6] is: S. pyogenes strain 1744272, read-out: MIC.
Setting [7] is: S. pyogenes strain 1744275, read-out: MIC.
[8] abbreviates: S. pyogenes strain 1744277, read-out: MIC.
[9] abbreviates: S. pyogenes strain 1744285, read-out: MIC.
Setting [10] is: S. pyogenes strain 2065754, read-out: MIC.
[11] abbreviates: S. pyogenes strain 2065755, read-out: MIC.
Setting [12] is: S. pyogenes strain 2065756, read-out: MIC.
[13] abbreviates: S. pyogenes strain 2065757, read-out: MIC.
The mark [14] stands for this setting: S. pyogenes strain 2065760, read-out: MIC.
Where [15] appears, read: S. pyogenes strain 2065762, read-out: MIC.
[16] abbreviates: S. pyogenes strain 2065765, read-out: MIC.
Where [17] appears, read: S. pyogenes strain 20658748, read-out: MIC.
Setting [18] is: S. pyogenes strain 20658749, read-out: MIC.
[19] abbreviates: S. pyogenes strain 20658750, read-out: MIC.
Where [20] appears, read: S. pyogenes strain 2065759, read-out: MIC.
The mark [21] stands for this setting: S. pyogenes strain 2065761, read-out: MIC.
Where [22] appears, read: S. pyogenes strain 2065763, read-out: MIC.

For five molecules, MIC results are on record in US12440529B2, “Topical Croton lechleri compositions and their use in the treatment of a bacterial colonization or primary or secondary bacterial infection of an underlying skin disorder” (ALPHYN BIOLOGICS, INC., priority 2020, dated 2025).

≈ marks a conversion by molar mass, not a printed value. Read-outs that look alike come from different tables or passages of the source.

For orientation: MIC means the lowest concentration found to suppress growth. Turning to `CN(C)[C@@H]1C(O)=C(C(N)=O)C(=O)[C@@]2(O)C(O)=C3C(=O)c4c(O)cccc4[C@@](C)(O)[C@H]3C[C@@H]12` [Tetracycline], the MIC in assay [1] (setting [3]) was 0.25 µg/mL (≈ 0.563 µM); in assay [1] (setting [4]), 8 µg/mL (≈ 18 µM); in assay [1] (setting [5]) it was 16 µg/mL (≈ 36 µM); in assay [1] (setting [6]) it was 8 µg/mL (≈ 18 µM); in assay [1] (setting [7]), 0.25 µg/mL (≈ 0.563 µM); in assay [1] (setting [8]) it was 0.25 µg/mL (≈ 0.563 µM). Also, the MIC in assay [1] (setting [9]) is greater than 16 µg/mL; in assay [1] (setting [10]), 16 µg/mL (≈ 36 µM); in assay [1] (setting [11]), greater than 16 µg/mL; in assay [1] (setting [12]), greater than 16 µg/mL; in assay [1] (setting [13]), 16 µg/mL (≈ 36 µM); in assay [1] (setting [14]) it was greater than 16 µg/mL. Moreover, the MIC in assay [1] (setting [15]) was greater than 16 µg/mL; in assay [1] (setting [16]) it was 2 to 4 µg/mL (≈ 4.5 to 9 µM); in assay [1] (setting [17]) it was 16 µg/mL (≈ 36 µM); in assay [1] (setting [18]), 16 µg/mL (≈ 36 µM); in assay [1] (setting [19]) it was greater than 16 µg/mL.
In the case of `CC[C@H]1OC(=O)[C@H](C)[C@@H](O[C@H]2C[C@@](C)(OC)[C@@H](O)[C@H](C)O2)[C@H](C)[C@@H](O[C@@H]2O[C@H](C)C[C@H](N(C)C)[C@H]2O)[C@](C)(O)C[C@@H](C)C(=O)[C@H](C)[C@@H](O)[C@]1(C)O` [Erythromycin], the MIC in assay [1] (setting [3]) is 2 µg/mL (≈ 2.73 µM); in assay [1] (setting [4]), greater than 16 µg/mL; in assay [1] (setting [5]), greater than 16 µg/mL; in assay [1] (setting [6]) it was greater than 16 µg/mL; in assay [1] (setting [7]), greater than 16 µg/mL; in assay [1] (setting [8]), 0.5 µg/mL (≈ 0.681 µM). The MIC is greater than 16 µg/mL in assay [1] (setting [9]); greater than 16 µg/mL in assay [1] (setting [10]); 2 µg/mL (≈ 2.73 µM) in assay [1] (setting [11]); 2 µg/mL (≈ 2.73 µM) in assay [1] (setting [12]); greater than 16 µg/mL in assay [1] (setting [13]); 4 µg/mL (≈ 5.45 µM) in assay [1] (setting [20]). Besides, the MIC in assay [1] (setting [14]) is 2 µg/mL (≈ 2.73 µM); in assay [1] (setting [21]) it was greater than 16 µg/mL; in assay [1] (setting [15]), 2 µg/mL (≈ 2.73 µM); in assay [1] (setting [22]), 2 µg/mL (≈ 2.73 µM); in assay [1] (setting [16]), greater than 16 µg/mL; in assay [1] (setting [17]), 2 µg/mL (≈ 2.73 µM). Also, the MIC in assay [1] (setting [18]) and in assay [1] (setting [19]) was 1 µg/mL (≈ 1.36 µM) in each case.
For the molecule `C[C@@H](O)[C@H]1C(=O)N2C(C(=O)O)=C(SCCN=CN)C[C@H]12` [Imipenem], the MIC in the assay with Pseudomonas aeruginosa (ATCC27853, strain ATCC 27853, QC strain) is 2 µg/mL (≈ 6.68 µM); in the assay with Pseudomonas aeruginosa (strain CDC 0064, MDR), greater than 64 µg/mL; in the assay with Pseudomonas aeruginosa (strain CDC 0092, IMP), greater than 64 µg/mL; in the assay with Pseudomonas aeruginosa (strain CDC 0103, IMP), greater than 64 µg/mL; in the assay on Pseudomonas aeruginosa (strain CDC 0230, VIM) it was greater than 64 µg/mL; in the assay with Pseudomonas aeruginosa (strain CDC 0231, KPC), greater than 64 µg/mL. Further, the minimal inhibitory concentration (MIC) in the assay on Pseudomonas aeruginosa (strain CDC 0239, VIM) was greater than 64 µg/mL; in the assay on Pseudomonas aeruginosa (strain CDC 0241, IMP) it was greater than 64 µg/mL; against Pseudomonas aeruginosa (strain CDC 0246, MDR), greater than 64 µg/mL; with Pseudomonas aeruginosa (strain CDC 0250, MDR), greater than 64 µg/mL; in the assay on Pseudomonas aeruginosa (strain CDC 0254, VIM), greater than 64 µg/mL; in the assay with Pseudomonas aeruginosa (strain CDC 0255, VIM), greater than 64 µg/mL. Further, the MIC in the assay on Pseudomonas aeruginosa (strain CDC 0353, MDR) was 16 µg/mL (≈ 53.4 µM); with Pseudomonas aeruginosa (strain CDC 0356, KPC), greater than 64 µg/mL; against Pseudomonas aeruginosa (strain CDC 0357, MDR), 16 µg/mL (≈ 53.4 µM); against Pseudomonas aeruginosa (strain CDC 0439, IMP), greater than 64 µg/mL; in the assay with Pseudomonas aeruginosa (strain CDC 0441, KPC), greater than 64 µg/mL; against Pseudomonas aeruginosa (strain CDC 0508, MDR), 16 µg/mL (≈ 53.4 µM). For the same molecule, the MIC in the assay with Pseudomonas aeruginosa (strain CDC 0509, VIM) is greater than 64 µg/mL; in the assay with Pseudomonas aeruginosa (strain CDC 0516, KPC), greater than 64 µg/mL; with Pseudomonas aeruginosa (strain CDC 0518, KPC), greater than 64 µg/mL.
Regarding `CN[C@H](CC(C)C)C(=O)N[C@H]1C(=O)N[C@@H](CC(N)=O)C(=O)N[C@H]2C(=O)N[C@H]3C(=O)N[C@H](C(=O)N[C@H](C(=O)O)c4cc(O)cc(O)c4-c4cc3ccc4O)[C@H](O)c3ccc(c(Cl)c3)Oc3cc2cc(c3O[C@@H]2O[C@H](CO)[C@@H](O)[C@H](O)[C@H]2O[C@H]2C[C@](C)(N)[C@H](O)[C@H](C)O2)Oc2ccc(cc2Cl)[C@H]1O` [Vancomycin], the MIC was 0.5 µg/mL (≈ 0.345 µM) in assay [1] (S. pyogenes strain 1744264); 8 µg/mL (≈ 5.52 µM) in assay [1] (S. pyogenes strain 1744265); 0.5 µg/mL (≈ 0.345 µM) in assay [1] (S. pyogenes strain 1744271); 1 µg/mL (≈ 0.69 µM) in assay [1] (S. pyogenes strain 1744272); 0.25 to 0.5 µg/mL (≈ 0.173 to 0.345 µM) in assay [1] (S. pyogenes strain 1744275); 4 µg/mL (≈ 2.76 µM) in assay [1] (S. pyogenes strain 1744277). Further, the MIC in assay [1] (S. pyogenes strain 1744285), in assay [1] (S. pyogenes strain 2065754), in assay [1] (S. pyogenes strain 2065755), in assay [1] (S. pyogenes strain 2065756), in assay [1] (S. pyogenes strain 2065757) and in assay [1] (S. pyogenes strain 2065759) was 0.5 µg/mL (≈ 0.345 µM) each time. The MIC was 0.5 µg/mL (≈ 0.345 µM) in assay [1] (S. pyogenes strain 2065760); 0.5 µg/mL (≈ 0.345 µM) in assay [1] (S. pyogenes strain 2065761); 0.5 µg/mL (≈ 0.345 µM) in assay [1] (S. pyogenes strain 2065762); 0.5 µg/mL (≈ 0.345 µM) in assay [1] (S. pyogenes strain 2065763); 2 to 4 µg/mL (≈ 1.38 to 2.76 µM) in assay [1] (S. pyogenes strain 2065765); 0.25 to 0.5 µg/mL (≈ 0.173 to 0.345 µM) in assay [1] (S. pyogenes strain 20658748). Moreover, the MIC in assay [1] (S. pyogenes strain 20658749) and in assay [1] (S. pyogenes strain 20658750) was 0.5 µg/mL (≈ 0.345 µM) in each case.
On to `C/C(=C\C(=O)OCCCCCCCCC(=O)O)C[C@@H]1OC[C@H](C[C@@H]2O[C@H]2[C@@H](C)[C@H](C)O)[C@@H](O)[C@H]1O` [Mupirocin], for which the MIC is 0.25 to 1 µg/mL in assay [2] (Staphylococcus aureus, strain CDC 461, MupirocinS, MSSA); 0.25 to 1 µg/mL in assay [2] (Staphylococcus aureus, strain CDC 461; MupirocinS, MSSA); 0.25 µg/mL (≈ 0.499 µM) in assay [1] (setting [3]); 0.5 µg/mL (≈ 0.999 µM) in assay [1] (setting [4]); 0.5 µg/mL (≈ 0.999 µM) in assay [1] (setting [5]); 0.25 µg/mL (≈ 0.499 µM) in assay [1] (setting [6]). Also, the MIC in assay [1] (setting [7]), in assay [1] (setting [8]), in assay [1] (setting [9]), in assay [1] (setting [10]), in assay [1] (setting [11]) and in assay [1] (setting [12]) was no more than 0.125 µg/mL each time. For the same molecule, the MIC in assay [1] (setting [13]), in assay [1] (setting [20]), in assay [1] (setting [14]), in assay [1] (setting [21]), in assay [1] (setting [15]) and in assay [1] (setting [22]) was no more than 0.125 µg/mL throughout. Moreover, the MIC in assay [1] (setting [16]), in assay [1] (setting [17]), in assay [1] (setting [18]) and in assay [1] (setting [19]) was no more than 0.125 µg/mL throughout.
